According to patent US20050282818A1, “Ubiquitin ligase inhibitors” (Rigel Pharmaceuticals, Inc., priority 2004, published 2005):

Assays:
[1] = molecular target: T1, TRAF6/Uev1A/Ubc13 (Homo sapiens, UniProt Q9Y4K3); assay: TRAF6/Uev1A/Ubc13 plate-based ubiquitin ligase assay; format: biochemical
T1 sequence (Q9Y4K3 1-522): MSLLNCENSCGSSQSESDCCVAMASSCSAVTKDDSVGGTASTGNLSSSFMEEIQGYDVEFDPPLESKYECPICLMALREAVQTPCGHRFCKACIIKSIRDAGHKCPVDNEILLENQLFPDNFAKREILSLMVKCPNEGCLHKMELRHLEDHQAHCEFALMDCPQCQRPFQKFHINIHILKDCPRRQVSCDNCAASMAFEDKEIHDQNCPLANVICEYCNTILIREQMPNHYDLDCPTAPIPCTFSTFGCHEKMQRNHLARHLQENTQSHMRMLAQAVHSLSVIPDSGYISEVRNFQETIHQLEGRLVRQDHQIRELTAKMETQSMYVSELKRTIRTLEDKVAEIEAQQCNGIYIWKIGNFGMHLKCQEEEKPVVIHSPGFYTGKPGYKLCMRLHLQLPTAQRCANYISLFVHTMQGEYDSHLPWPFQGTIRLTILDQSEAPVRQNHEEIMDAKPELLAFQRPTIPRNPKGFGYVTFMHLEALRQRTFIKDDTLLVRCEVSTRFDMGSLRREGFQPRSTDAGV
In short: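 Ligase activity was read as luminescence from anti-Flag/HRP detection of Flag-ubiquitin bound to casein-blocked Ni-plates alongside His-ubiquitin after a 1 h room-temperature reaction. Buffer: 62.5 mM Tris pH 7.5, 6.25 mM MgCl2, 1.0 mM DTT, 2 μM ATP; E1, Uev1a/Ubc13 and TRAF6 added last to start. IC50s derived across compound concentrations.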

[2] = molecular target: APC11/APC2 (Homo sapiens, UniProt Q9NYG5+Q9UJX6); assay: APC-11/APC-2 ligase assay (APC auto ubiquitination); format: biochemical; conditions: APC assay
Experimental: For the assays described below, the TRAF6/Uev1A/UBC13 assay is the biochemical plate-based assay of TRAF6 ligase activity using Ubc13 as the E2 enzyme. The gel-based assay is the biochemical solution-based TRAF6 ligase assay (by SDS-PAGE and Western blot) to confirm the plate-based ELISA assay. The APC assay is an assay which is another E3 ligase (APC2/APC11) biochemical assay.
E3 (His APC11/APC2— “APC”) auto ubiquitination was measured as described in U.S. patent application Ser. No. 09/826,312 (Publication No. U.S. 2002 0042083 A1), which is incorporated by reference in its entirety. Details of the protocol are described below. Activity in the presence of the compound was determined relative to a parallel control in which only DMSO was added. Values of the IC50 were typically determined using 6 or 8 different concentrations of the compound, although as few as 2 concentrations may be used to approximate the IC50 value.
Nickel coated 96 well plates (Pierce 15242) were blocked for 1 hour with 100 μl of blocking buffer at room temperature. The plates were washed 4 times with 225 μl of 1 […]PBS and 80 μl of the reaction buffer were added that contained 100 ng/well of Flag ubiquitin. To this, 10 μl of the test compound diluted in DMSO were added. After the test compound was added, 10 μl of E1 (human), E2 (Ubch5c), and APC in Protein Buffer was added to obtain a final concentration of 5 ng/well of E1, 20 ng/well of E2 and 100 ng/well of APC. The plates were shaken for 10 minutes and incubated at room temperature for 1 hour. After incubation, the plates were washed 4 times with 225 μl of 1×PBS and 100 μl/well of Antibody Mix were added to each well. The plates were incubated at room temperature for another hour after which they were washed 4 times with 225 μl of 1×PBS and 100 μl/well of Lumino substrate were added to each well. The luminescence was measured by using a BMG luminescence microplate reader. The Blocking Buffer (1% Casein in 1×PBS) was stored at 4° C. until use.
The reaction buffer consisted of 62.5 mM Tris pH 7.6 (Trizma Base—Sigma T 8524), 3 mM MgCl2 (Magnesium Chloride—Sigma M 2393), 1 mM DTT (Sigma D 9779), 2.5 mM ATP (Roche Boehringer Mann Corp. 635 316), 100 ng/well of Flag ubiquitin, 0.1% BSA (Sigma A 7906), and 0.05% Tween 20 (Sigma P 7949).
The Protein Buffer consisted of 20 mM Tris pH 7.6, 10% glycerol (Sigma G 5516) and 1 mM DTT.
The antibody mix consisted of 0.25% BSA (Sigma A 7906) in 1×PBS, 1/50,000 anti Flag (Sigma F 3165), 1/100,000 of anti Mouse IgG HRP (Jackson Imrunoresearch #115 035 146).
The substrate mix consisted of SuperSignal Substrate from Pierce (catalog number 37070ZZ) and was prepared by mixing 100 ml of the peroxide solution, 100 ml of the enhancer solution and 100 ml of Milli Q® water.

[3] = test system: ICAM-1 expression in A549 cells; assay: ICAM assay (IL-1 induced ICAM-1/CD54 expression in A549 cells); format: cell-based, human; conditions: Homo sapiens, A549, ICAM assay
In short: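 Luminescent immunostaining (anti-CD54, then anti-mouse IgG, 1 h) quantifies ICAM-1 on A549 cells induced 4 h at 37° C by IL-1 (4 μl of 25 ng/ml added). Compound is added 1 h before the cytokine to cells plated overnight at 10,000 per well.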

APC11/APC2, sequence (Q9NYG5 whole entry): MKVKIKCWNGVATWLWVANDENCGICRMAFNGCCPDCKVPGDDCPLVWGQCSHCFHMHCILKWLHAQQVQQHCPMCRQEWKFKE
APC11/APC2, sequence (Q9UJX6 whole entry): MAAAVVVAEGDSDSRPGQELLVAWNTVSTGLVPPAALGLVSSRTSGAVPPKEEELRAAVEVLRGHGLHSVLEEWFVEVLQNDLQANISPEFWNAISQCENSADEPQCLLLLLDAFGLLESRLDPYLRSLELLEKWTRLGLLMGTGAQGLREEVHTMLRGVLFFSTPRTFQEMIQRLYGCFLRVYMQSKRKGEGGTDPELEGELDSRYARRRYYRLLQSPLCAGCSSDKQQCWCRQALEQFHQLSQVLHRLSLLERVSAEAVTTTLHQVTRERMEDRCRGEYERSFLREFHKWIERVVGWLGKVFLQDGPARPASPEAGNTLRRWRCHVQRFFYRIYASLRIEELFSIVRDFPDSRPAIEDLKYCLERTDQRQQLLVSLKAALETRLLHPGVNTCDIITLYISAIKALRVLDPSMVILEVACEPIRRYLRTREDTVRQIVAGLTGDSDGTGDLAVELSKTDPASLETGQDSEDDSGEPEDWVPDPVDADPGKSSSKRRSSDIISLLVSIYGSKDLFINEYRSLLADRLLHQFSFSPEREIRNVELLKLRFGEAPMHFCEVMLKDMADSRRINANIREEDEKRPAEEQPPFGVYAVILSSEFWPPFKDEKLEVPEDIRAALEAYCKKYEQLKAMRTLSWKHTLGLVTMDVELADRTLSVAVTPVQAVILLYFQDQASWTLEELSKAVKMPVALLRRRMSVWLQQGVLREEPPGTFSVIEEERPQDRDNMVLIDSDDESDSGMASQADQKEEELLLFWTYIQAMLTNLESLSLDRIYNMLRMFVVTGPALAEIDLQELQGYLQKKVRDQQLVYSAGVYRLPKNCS

Compound | IC50 [1] [µM] | IC50 [2] [µM] | IC50 [3] [µM]
Cc1cccc(-c2cc(-c3cccc(C)c3)c3nonc3c2)c1 [compound 419, 4,6-bis(3-methylphenyl)-2,1,3-benzoxadiazole] | ≥ 20 | ≥ 20 | ≥ 20
Fc1cc2nsnc2cc1-c1ccccc1 [compound 458, 5-fluoro-6-phenyl-2,1,3-benzthiadiazole] | ≥ 20 | ≥ 20 | ≥ 20
O=S(=O)(Nc1cccc(F)c1F)c1ccc(Sc2cccc3cccnc23)c2nonc12 [compound 376, N-(2,3-difluorophenyl)-7-(quinolin-8-ylthio)-2,1,3-benzoxadiazole-4-sulfonamide] | ≥ 20 | 1 to 20 | ≥ 20
COc1ccc(-c2cc3nsnc3cc2F)cc1OC [compound 463, 5-(3,4-dimethoxyphenyl)-6-fluoro-2,1,3-benzthiadiazole] | ≥ 20 | ≥ 20 | ≥ 20
Cc1cccc(-c2cc(C(F)(F)F)cc3nonc23)c1C [compound 473, 4-(2,3-dimethylphenyl)-6-(trifluoromethyl)-2,1,3-benzoxadiazole] | ≥ 20 | ≥ 20 | ≥ 20
COc1ccccc1NS(=O)(=O)c1ccc(Cl)c2nonc12 [compound 356, 7-chloro-N-(2-methoxyphenyl)-2,1,3-benzoxadiazole-4-sulfonamide] | ≥ 20 | ≥ 20 | 1 to 20
O=S(=O)(NCC1CCCCC1)c1ccc(Cl)c2nonc12 [compound 447, 7-chloro-N-(cyclohexylmethyl)-2,1,3-benzoxadiazole-4-sulfonamide] | ≥ 20 | ≥ 20 | 1 to 20

Now from value to compound:

IC50 [1] [µM] | IC50 [2] [µM] | IC50 [3] [µM] | Compound
≥ 20 | ≥ 20 | ≥ 20 | COc1cccc(-c2cc(-c3cccc(OC)c3)c3nonc3c2)c1 [compound 421, 4,6-bis(3-methoxyphenyl)-2,1,3-benzoxadiazole]
1 to 20 | 1 to 20 | 1 to 20 | O=S(=O)(Nc1c(F)cccc1F)c1c(Cl)cc(Cl)c2nonc12 [compound 414, 5,7-dichloro-N-(2,6-difluorophenyl)-2,1,3-benzoxadiazole-4-sulfonamide]
≥ 20 | ≥ 20 | 1 to 20 | O=S(=O)(NC1CCCCC1)c1ccc(Cl)c2nonc12 [compound 448, 7-chloro-N-(cyclohexyl)-2,1,3-benzoxadiazole-4-sulfonamide]
≥ 20 | 1 to 20 | ≥ 20 | O=C1OC2(CCN(S(=O)(=O)c3ccc(Cl)c4nonc34)CC2)c2ccccc21 [compound 332, 1′-{[7-chloro-(2,1,3-benzoxadiazol-4-yl)]sulfonyl}-3H-spiro[2-benzofuran-1,4′-piperidin]-3-one]
≥ 20 | 1 to 20 | 1 to 20 | Cc1ccc(-c2ccc([N+](=O)[O-])c3nonc23)cc1 [compound 468, 4-(4-methylphenyl)-7-nitro-2,1,3-benzoxadiazole]
≥ 20 | 1 to 20 | 1 to 20 | Cc1cccc(-c2ccc([N+](=O)[O-])c3nonc23)c1C [compound 470, 4-(2,3-dimethylphenyl)-7-nitro-2,1,3-benzoxadiazole]
≥ 20 | 1 to 20 | 1 to 20 | O=[N+]([O-])c1ccc(-c2ccccc2F)c2nonc12 [compound 437, 7-(2-fluorophenyl)-4-nitro-2,1,3-benzoxadiazole]
≥ 20 | ≥ 20 | 1 to 20 | Cc1ccc(F)cc1NS(=O)(=O)c1ccc(Cl)c2nonc12 [compound 351, 7-chloro-N-(5-fluoro-2-methylphenyl)-2,1,3-benzoxadiazole-4-sulfonamide]
1 to 20 | 1 to 20 | 1 to 20 | O=[N+]([O-])c1ccc(-c2ccc(Oc3ccccc3)cc2)c2nonc12 [compound 464, 4-nitro-7-(4-phenoxyphenyl)-2,1,3-benzoxadiazole]
